Results published in paper PMC10889512, “Pyrimidine Schiff Bases: Synthesis, Structural Characterization and Recent Studies on Biological Activities” (International Journal of Molecular Sciences, 2024).

How the values were obtained:
A172 cells [1] = assay: Flow cytometry FDA/PI staining, cell viability, A172; type: cell-based, human
Experimental: A detailed analysis of potential cytotoxic mechanisms has been performed only for the selected compound (4b) where the IC50 values under 100 µM were detected in the screening NR assay. Flow cytometry was performed on the A172 and AGS cell lines. Cells were incubated with compound 4b at IC50 for 24, 48, and 72 h before analysis. Fluorescein diacetate (FDA) and propidium iodide (PI) were used as indicators for viable and nonviable (necrotic) cells. Most of the events were captured in the first and the fourth quadrant, which represent viable and necrotic cells, respectively. […] Similar results were obtained for the AGS cell line (Figure 8B), where the viability was 60.95%/55.10%/44.99% after the same incubation periods, respectively. Some events occurred in the second quadrant, but it was difficult to unequivocally categorize them into viable or nonviable (apoptotic/necrotic) cell populations, and thus more sensitive dyes, able to distinguish between the types of cell death, were needed.
Two approaches for flow cytometry were used—FDA/PI staining to determine cell viability and annexin V/PI staining for cell death pathway determination.
For cell viability determination, cells were plated in 6-well plates at a density of 1 × 10^5 cells/well and incubated for 24 h at 37 °C, 5% CO2 and in a humidified atmosphere. Next, cells were treated with 4b at a concentration calculated as IC50 in neutral red uptake assay. After 24, 48, and 72 h incubation, the cells (either adhered or floating) were collected, centrifuged at 1600 rpm, and washed with PBS. FDA and PI stock solution at a 1 mM concentration were prepared in DMSO and H2O, respectively. After centrifugation and supernatant discarding, cells were stained with FDA at a final concentration of 1 µM prepared in PBS and incubated in the dark. After 15 min, they were centrifuged at 1600 rpm, resuspended in ice-cold PBS, and placed on ice. Samples were stained with 1 µM PI for 2 min before the cytometry evaluation. […]

S. aureus 43300 = assay: Antimicrobial activity assay, microdilution; type: cell-based, Staphylococcus aureus; settings: concentration range from 0.5 µg/mL to 256 µg/mL
Experimental: In vitro antimicrobial and antifungal activity was screened using microdilution and modified Richard’s medium. The assay was performed for compounds 4a, 4b, 4c, and 4d with seven reference microbial strains from ATTC (E. coli 25922, S. aureus 43300, K. pneumoniae 700603, A. baumannii 19606, P. aeruginosa 27853, E. faecalis 29212, and C. albicans 10231).
Seven reference strains from the ATCC collection (Escherichia coli 25922, Staphylococcus aureus 43300, Klebsiella pneumoniae 13883, Acinetobacter baumannii 19606, Pseudomonas aeruginosa 27853, Enterococcus faecalis 29212, and Candida albicans 10231) were used. The assay was performed according to a modified version of Richard et al.’s protocol and ISO standards 20776-1:2019 and 16256:2021 [78, 79]. Microdilution with spectrophotometric measurement was used to calculate MIC50 (minimal inhibitory concentration which decreased the microorganisms’ viability to 50%) values. Briefly, compounds were prepared 100× concentrated in DMSO, and during the whole experiment, they were diluted to 1× with TSB. Serial dilutions of tested compounds were made directly on plates at a concentration range of 0.5 to 256 µg/mL. Microorganisms were incubated for 24 h at 37 °C (bacteria) or 25 °C (yeast) on Petri dishes with TSA. The bacteria/yeast suspensions were prepared at a density 5 × 10^5 CFU/mL (for bacteria) or 0.5–2.5 × 10^5 CFU/mL (for yeast) with TSB. Also, appropriate controls were contained in the experiment: the positive control consisted of a specific strain in TSB, and the negative control was TSB alone. To ensure that used strains were not modified and were still responding to antibacterial/antifungal compounds established by EUCAST, additional tests were conducted with levofloxacin, gentamicin, and amphotericin B. Microplates were incubated on a shaker for 24 h at 37 ± 1 °C or 25 ± 1 °C for the bacteria and yeast strains, respectively. After the incubation, spectrophotometric measurement was performed at 580 nm. MIC50 was calculated by comparing the results obtained for experimental sets with positive controls. Next, 50 µL aliquots of 1% (m/v) TTC solution were added to each well. The plates were incubated on the shaker for 24 h at 37/25 °C. In living microbial cells, colourless TTC is converted into red formazan crystals, which allows for visual observation and MBC/MFC (minimal bactericidal/fungicidal concentration) value assessment.

A172 cells [2] = assay: Flow cytometry annexin V/PI staining, cell death pathway, A172; type: cell-based, human; settings: A172, at IC50, 6, 18 and 24 h
Experimental: To confirm the cell death pathway, another approach to flow cytometry was used. […] Annexin V is a specific PS-binding protein, and thus it is used to detect apoptotic cells. Very few events could be observed in the first and the second quadrant, which represent apoptotic cells. Most events occurred in the third and the fourth quadrant, where unstained and necrotic cells were located. The 24 h measurements after both flow cytometry approaches were consistent with each other. […] Two approaches for flow cytometry were used—FDA/PI staining to determine cell viability and annexin V/PI staining for cell death pathway determination. For cell death pathway determination, cells were plated in 6-well plates at a density of 3 × 10^5 cells/well. […] After 6, 18, and 24 h incubation, adhered and floating cells were harvested, centrifuged at 1600 rpm, and washed with PBS. Next, the cells were washed with 1× annexin-binding buffer, and after centrifugation, cells from each test set were suspended in 100 µL of 1× annexin-binding buffer. To each tube, 5 µL of Alexa Fluor 488-annexin V stain was added, and the cells were incubated in the dark. After 15 min incubation, the cells were centrifuged at 1600 rpm to remove the dye, then suspended in 1 mL of 1× binding buffer and kept on ice. Prior to analysis, cells were stained for 2 min with 1 µM PI. […]

Cc1nc(-c2ccccc2)nc(Nc2ccc(F)cc2)c1C=Nc1cccc(Cl)c1 [compound 4b, 5-{[(3-chlorophenyl)imino]methyl}-N-(4-fluorophenyl)-6-methyl-2-phenylpyrimidin-4-amine]
Q1 events (viable cells; viability), FDA/PI (A172 cells [1]; A172, at IC50, 24 h): 59.32%
Q1 events (viable cells; viability), FDA/PI (A172 cells [1]; A172, at IC50, 48 h): 50.98%
Q1 events (viable cells; viability), FDA/PI (A172 cells [1]; A172, at IC50, 72 h): 43.88%
MIC and MBC/MFC activity (S. aureus 43300): Neither MIC nor MBC/MFC activity was observed
cell death pathway (A172 cells [2]): irreversible cell injury and necrosis
